Measurements taken from ChEMBL document CHEMBL3120075 (J Med Chem, 2014).

Columns and labels:
[1] = Ratio of EC50 for HCV genotype 1a H77 infected in human HuH7 cells in presence of 10% BSA to plasma concentration in fasted healthy human at 3 mg/kg, po at 24 hrs; parameters: species or system Huh-7
[2] = Ratio of EC50 for HCV genotype 1a H77 infected in human HuH7 cells in presence of human serum to plasma concentration in fasted healthy human at 3 mg/kg, po at 24 hrs; parameters: species or system Huh-7
[3] = Half life in fasted healthy human at 100 mg/kg, po; format: ADME, organism-based; parameters: dose 100 mg/kg, route oral; conditions: in vivo
[4] = Plasma concentration in fasted healthy human at 100 mg/kg, po at 24 hrs; format: ADME, organism-based; parameters: dose 100 mg/kg, route oral
[5] = AUC (infinity) in fasted healthy human at 100 mg/kg, po; format: ADME, organism-based; parameters: time infinity, dose 100 mg/kg, route oral; conditions: plasma
[6] = Tmax in fasted healthy human at 100 mg/kg, po; format: ADME, organism-based; parameters: dose 100 mg/kg, route oral; conditions: in vivo
[7] = AUClast in fasted healthy human at 100 mg/kg, po; format: ADME, organism-based; parameters: time 0 - last, dose 100 mg/kg, route oral; conditions: plasma
[8] = Cmax in fasted healthy human at 100 mg/kg, po; format: ADME, organism-based; parameters: dose 100 mg/kg, route oral; conditions: in vivo
[9] = Plasma concentration in fasted healthy human at 60 mg/kg, po at 24 hrs; format: ADME, organism-based; parameters: dose 60 mg/kg, route oral
[10] = AUC (infinity) in fasted healthy human at 60 mg/kg, po; format: ADME, organism-based; parameters: time infinity, dose 60 mg/kg, route oral; conditions: plasma
[11] = Half life in fasted healthy human at 60 mg/kg, po; format: ADME, organism-based; parameters: dose 60 mg/kg, route oral; conditions: in vivo
[12] = AUClast in fasted healthy human at 60 mg/kg, po; format: ADME, organism-based; parameters: dose 60 mg/kg, route oral, time 0 - last; conditions: plasma
[13] = Tmax in fasted healthy human at 60 mg/kg, po; format: ADME, organism-based; parameters: dose 60 mg/kg, route oral; conditions: in vivo
[14] = Cmax in fasted healthy human at 60 mg/kg, po; format: ADME, organism-based; parameters: dose 60 mg/kg, route oral; conditions: in vivo
[15] = Plasma concentration in fasted healthy human at 30 mg/kg, po at 24 hrs; format: ADME, organism-based; parameters: dose 30 mg/kg, route oral
[16] = Half life in fasted healthy human at 30 mg/kg, po; format: ADME, organism-based; parameters: dose 30 mg/kg, route oral; conditions: in vivo
[17] = AUClast in fasted healthy human at 30 mg/kg, po; format: ADME, organism-based; parameters: time 0 - last, dose 30 mg/kg, route oral; conditions: plasma
[18] = AUC (infinity) in fasted healthy human at 30 mg/kg, po; format: ADME, organism-based; parameters: time infinity, dose 30 mg/kg, route oral; conditions: plasma
[19] = Tmax in fasted healthy human at 30 mg/kg, po; format: ADME, organism-based; parameters: dose 30 mg/kg, route oral; conditions: in vivo
[20] = Plasma concentration in fasted healthy human at 10 mg/kg, po at 24 hrs; format: ADME, organism-based; parameters: dose 10 mg/kg, route oral
[21] = Cmax in fasted healthy human at 30 mg/kg, po; format: ADME, organism-based; parameters: dose 30 mg/kg, route oral; conditions: in vivo
[22] = Half life in fasted healthy human at 10 mg/kg, po; format: ADME, organism-based; parameters: dose 10 mg/kg, route oral; conditions: in vivo
[23] = AUC (infinity) in fasted healthy human at 10 mg/kg, po; format: ADME, organism-based; parameters: time infinity, dose 10 mg/kg, route oral; conditions: plasma
[24] = Tmax in fasted healthy human at 10 mg/kg, po; format: ADME, organism-based; parameters: dose 10 mg/kg, route oral; conditions: in vivo
[25] = AUClast in fasted healthy human at 10 mg/kg, po; format: ADME, organism-based; parameters: time 0 - last, dose 10 mg/kg, route oral; conditions: plasma
[26] = Cmax in fasted healthy human at 10 mg/kg, po; format: ADME, organism-based; parameters: dose 10 mg/kg, route oral; conditions: in vivo
[27] = Plasma concentration in fasted healthy human at 3 mg/kg, po at 24 hrs; format: ADME, organism-based; parameters: dose 3 mg/kg, route oral
[28] = Half life in fasted healthy human at 3 mg/kg, po; format: ADME, organism-based; parameters: dose 3 mg/kg, route oral; conditions: in vivo
[29] = AUC (infinity) in fasted healthy human at 3 mg/kg, po; format: ADME, organism-based; parameters: time infinity, dose 3 mg/kg, route oral; conditions: plasma
[30] = AUClast in fasted healthy human at 3 mg/kg, po; format: ADME, organism-based; parameters: time 0 - last, dose 3 mg/kg, route oral; conditions: plasma
[31] = Tmax in fasted healthy human at 3 mg/kg, po; format: ADME, organism-based; parameters: dose 3 mg/kg, route oral; conditions: in vivo
[32] = Cmax in fasted healthy human at 3 mg/kg, po; format: ADME, organism-based; parameters: dose 3 mg/kg, route oral; conditions: in vivo

SMILES: COC(=O)N[C@H](C(=O)N1CC2(CC2)C[C@H]1c1nc(-c2ccc3c(c2)C(F)(F)c2cc(-c4ccc5[nH]c([C@@H]6[C@H]7CC[C@H](C7)N6C(=O)[C@@H](NC(=O)OC)C(C)C)nc5c4)ccc2-3)c[nH]1)C(C)C
- Ratio [1]: 12
- Ratio [2]: 12
- half-life [3]: 2370 min
- concentration at 24 h [4]: 98.8 nM
- AUC(0-inf) [5]: 8.66 µM·h
- Tmax [6]: 5.5 h
- AUC(0-t) [7]: 7.05 µM·h
- Cmax [8]: 242 nM
- concentration at 24 h [9]: 56.4 nM
- AUC(0-inf) [10]: 5.3 µM·h
- half-life [11]: 2650 min
- AUC(0-t) [12]: 4.01 µM·h
- Tmax [13]: 5.5 h
- Cmax [14]: 133 nM
- concentration at 24 h [15]: 31.4 nM
- half-life [16]: 2230 min
- AUC(0-t) [17]: 2.24 µM·h
- AUC(0-inf) [18]: 2.72 µM·h
- Tmax [19]: 5.75 h
- concentration at 24 h [20]: 7.94 nM
- Cmax [21]: 82.2 nM
- half-life [22]: 2540 min
- AUC(0-inf) [23]: 0.695 µM·h
- Tmax [24]: 5 h
- AUC(0-t) [25]: 0.558 µM·h
- Cmax [26]: 21.3 nM
- concentration at 24 h [27]: 2.45 nM
- half-life [28]: 2710 min
- AUC(0-inf) [29]: 0.245 µM·h
- AUC(0-t) [30]: 0.14 µM·h
- Tmax [31]: 5.25 h
- Cmax [32]: 6.75 nM
